Patent publication US20190365788A1, “CYCLIC PHOSPHATE SUBSTITUTED NUCLEOSIDE DERIVATIVES FOR THE TREATMENT OF LIVER DISEASES” (priority 2016, published 2019)
Read-outs that look alike come from different tables or passages of the source.

Tests used:
HuH-1 cells = experiment: In vitro inhibition of HuH-1 cells (MTT proliferation assay); type: cell-based; settings: 72 h incubation, absorbance 570 nm, read-out: HuH-1: Relative IC50
Experimental: (§1) The compounds of the invention were tested in cell based in vitro assays comprising HuH-1 cells and HepG2 cells, as in vitro models for potential hepatocellular carcinoma activity.
(§2) HuH-1 cells were purchased from JCRB, HepG2 cells from ATCC, and both tested with the following method:
(§3) Cells are suspended at a specific density in a specific culture medium. Then, 100 μl of cell suspension are plated per well in 96-well plates.
(§4) Compounds or negative controls (DMSO) are added to the cells (100 μl of a compound solution in its specific medium with a final concentration of 0.15% DMSO). Each compound concentration is tested in duplicate (6 concentrations per compound). Cells are incubated at 37° C. for 72 h without treating again.
(§5) SDS is added to control wells (final concentration of 1%) and kept for 15 min at 37° C. SDS 1% represents the positive control of proliferation inhibition. Cell supernatant is removed and 100 μl of a MTT (3-[4.5-dimethylthiazol-2-yl]-2.5-diphenyltetrazolium bromide) solution in fresh medium are added per well (MTT final concentration of 0.5 mg/ml) and incubated for 4 h at 37° C. MTT reaction is stopped and homogenized by adding 100 μl/well of SDS 10%, 0.01M HCl and incubated for 2 h at 37° C. Absorbance is measured at 570 nm.

HepG2 cells = experiment: In vitro inhibition of HepG2 cells (MTT proliferation assay); type: cell-based; settings: 72 h incubation, absorbance 570 nm, read-out: HepG2: Relative IC50
Experimental: as §1, §2, §3, §4, §5

Human Hepatocytes = experiment: In vitro conversion of prodrug to nucleoside triphosphate (NTP) in human hepatocytes; type: in vitro ADME; settings: 1 hour at 10 μM prodrug, intracellular NTP
Experimental: The degree of conversion of a prodrug compound of the present invention to its corresponding nucleoside triphosphate (NTP) can be measured in vitro using the procedure described below.
A 2 mM stock solution of the prodrug test compound is prepared in 5% DMSO/95% MeOH to provide a final sample concentration of […]. A 5 μL aliquot is removed from this stock solution and added to 1 mL of either a rat or human cryopreserved hepatocyte sample to provide a control sample at concentration of 1 million cells/mL. This sample is assayed in triplicate and used as a test sample.
Human and rat hepatocytes are removed from liquid nitrogen storage and thawed by submerging the hepatocyte tube into a pre-heated 37° C. waterbath and gently shaking the tube back & forth until thawed. The thawed hepatocytes are then gently poured into a container of Hepatocyte Basal Medium (50 mL, pre-warmed to 37° C.) and washed. The hepatocyte tube is then rinsed out with pre-warmed Hepatocyte Basal Medium and the washed hepatocytes and rinse are combined and centrifuged at 500 rpm for 4 minutes at room temperature. The supernatant is then discarded and the resulting hepatocyte pellet is resuspended with Hepatocyte Basal Medium (pre-warmed to 37° C.) and the final hepatocyte concentration is adjusted to 1 million cells/mL to provide the final hepatocyte suspension.
A 1 mL aliquot is removed from the 1 million cells/mL final hepatocyte suspension, analyzed in triplicate and placed into 20 mL scintillation vial without a cap. 2 mM of the prodrug test sample is then added into the hepatocyte suspension to provide a 10 μM final concentration in the 1 mL hepatocyte sample. […]
The incubated hepatocyte suspension samples are transferred to a microcentrifuge tube using a transfer pipette and centrifuged at 500 rpm for 4 minutes at room temperature. […] The resulting extract solution is then stored in a refrigerator at 4° C. until ready for use, at which point the sample is first subjected to vortexing/sonication to ensure that all hepatocyte cells have burst. […]

Compound | IC50 (HuH-1 cells; Homo sapiens) | IC50 (HepG2 cells; Homo sapiens) | Human Hepatocyte 1 hour at 10 μM, NTP (Human Hepatocytes) | also measured
CC(C)OC(=O)C(C)CCOP1(=O)OC[C@H]2O[C@@H](n3cc(C(F)(F)F)c(=O)[nH]c3=O)C[C@@H]2O1 (mixture of isomers) [Mixture 6A/6B, Isopropyl 4-(((2S,4aR,6R,7aS)-6-(2,4-dioxo-5-(trifluoromethyl)-3,4-dihydropyrimidin-1 (2H)-yl)-2-oxidotetrahydro-4H-furo[3,2-d][1,3,2]dioxaphosphinin-2-yl)oxy)-2-methylbutanoate and Isopropyl 4-(((2R,4aR,6R,7aS)-6-(2,4-dioxo-5-(trifluoromethyl)-3,4-dihydropyrimidin-1 (2H)-yl)-2-oxidotetrahydro-4H-furo[3,2-d][1,3,2]dioxaphosphinin-2-yl)oxy)-2-methylbutanoate] | ≥ 5000 nM | ≥ 5000 nM | – | –
CC(C)OC(=O)[C@H](C)CCOP1(=O)OC[C@H]2O[C@@H](n3ccc(NC(=O)c4ccccc4)nc3=O)C(F)(F)[C@@H]2O1 (stereo partly drawn) [Compound 10, Isopropyl (2R)-4-(((4aR,6R,7aR)-6-(4-benzamido-2-oxopyrimidin-1(2H)-yl)-7,7-difluoro-2-oxidotetrahydro-4H-furo[3,2-d][1,3,2]dioxaphosphinin-2-yl)oxy)-2-methylbutanoate] | – | – | C (C=≥1 μM) | –
CCOC(=O)[C@H](C)CCOP1(=O)OC[C@H]2S[C@@H](n3ccc(N)nc3=O)[C@@H](F)[C@@H]2O1 (single isomer, unassigned) [Compound 1 Diastereoisomer 1] | < 500 nM | – | – | –
CC(C)OC(=O)[C@H](C)CCOP1(=O)OC[C@H]2S[C@@H](n3ccc(N)nc3=O)[C@@H](F)[C@@H]2O1 (single isomer, unassigned) [Compound 2 Diastereoisomer 2] | – | 500 to 5000 nM | A (A=<0.5 μM) | IC50 (HuH-1 cells): < 500 nM
CC(C)OC(=O)[C@@H](C)CCO[P@@]1(=O)OC[C@H]2O[C@@H](n3cnc4c(N)nc(Cl)nc43)C[C@@H]2O1.CC(C)OC(=O)[C@@H](C)CCO[P@]1(=O)OC[C@H]2O[C@@H](n3cnc4c(N)nc(Cl)nc43)C[C@@H]2O1 (single isomer, unassigned; diastereoisomer 1) [Compound 3 Diastereoisomer 1] | – | – | – | IC50 (HuH-1 cells): 500 to 5000 nM; IC50 (HepG2 cells): < 500 nM
COc1nc(N)nc2c1ncn2[C@@H]1O[C@@H]2COP(=O)(OCC[C@@H](C)C(=O)OC(C)C)O[C@H]2[C@@H]1O (mixture of isomers) [Mixture 5A/5B, Isopropyl (R)-4-(((2S,4aR,6R,7S,7aS)-6-(2-amino-6-methoxy-9H-purin-9-yl)-7-hydroxy-2-oxidotetrahydro-4H-furo[3,2-d][1,3,2]dioxaphosphinin-2-yl)oxy)-2-methylbutanoate and Isopropyl (R)-4-(((2R,4aR,6R,7S,7aS)-6-(2-amino-6-methoxy-9H-purin-9-yl)-7-hydroxy-2-oxidotetrahydro-4H-furo[3,2-d][1,3,2]dioxaphosphinin-2-yl)oxy)-2-methylbutanoate] | ≥ 5000 nM | ≥ 5000 nM | – | –
CC(C)OC(=O)[C@H](C)CCOP1(=O)OC[C@H]2S[C@@H](n3ccc(N)nc3=O)[C@@H](F)[C@@H]2O1 (single isomer, unassigned) [Compound 2 Diastereoisomer 1] | < 500 nM | – | – | –
CCOC(=O)[C@H](C)CCOP1(=O)OC[C@H]2S[C@@H](n3ccc(N)nc3=O)[C@@H](F)[C@@H]2O1 (single isomer, unassigned) [Compound 1 Diastereoisomer 2] | – | – | A (A=<0.5 μM) | –
